The target of the assay is T1, 11β-HSD1 (Homo sapiens, UniProt P28845).
T1 construct: detecting cortisol generated from cortisterone by human liver microsomes; from tissue; host or cells: human liver microsomes
The assay is described as follows: In vitro inhibition of 11β-HSD1, HTRF detection of cortisol generated by human liver microsomes. It counts as biochemical. As to conditions: cortisone 80 nM, NADPH 200 μM, 1 hour at 37° C., pH 6.0. As to the method:
In vitro inhibition of 11 β-HSD1 by test compounds was determined with HTRF (Homogeneous Time-Resolved Fluorescence) technology (cisbio international, France) detecting cortisol generated from cortisterone by human liver microsomes. Briefly, compounds were incubated for 1 hour at 37° C. in Tris buffer (20 mM tris, 5 mM EDTA, pH 6.0) containing NADPH (200 μM) and cortisone (80 nM). Cortisol generated in the reaction was then detected with a competitive immunoassay, involving two HTRF conjugates: cortisol linked to XL665 and anti-cortisol antibody labeled with Europium cryptate. The incubation period for detection reaction was typically 2 hours. The amount of cortisol was determined by reading the time-resolved fluorescence of the wells (Ex 320/75 nm; Em 615/8.5 nm and 665/7.5 nm). The ratio of the two emission signals is then calculated (Em665*10000/Em615). […] Each assay also contained a calibration curve with cortisol to transform the fluorescent data into cortisol concentrations. Percent inhibition of each compound was determined relative to the carbenoxolone signal and IC50 curves were generated.
In Table 1 the 11β-HSD 1 inhibitory activities, determined as described above, are compiled.
Background: Time-resolved FRET reads energy transfer from a long-lived donor to a nearby acceptor.

pIC50: −log10 of the molar value.

Broadly, the pIC50 is −log10 of the IC50, conventionally taken in molar units. Low values mean a high IC50, high ones a low IC50.

T1 sequence (P28845 whole entry): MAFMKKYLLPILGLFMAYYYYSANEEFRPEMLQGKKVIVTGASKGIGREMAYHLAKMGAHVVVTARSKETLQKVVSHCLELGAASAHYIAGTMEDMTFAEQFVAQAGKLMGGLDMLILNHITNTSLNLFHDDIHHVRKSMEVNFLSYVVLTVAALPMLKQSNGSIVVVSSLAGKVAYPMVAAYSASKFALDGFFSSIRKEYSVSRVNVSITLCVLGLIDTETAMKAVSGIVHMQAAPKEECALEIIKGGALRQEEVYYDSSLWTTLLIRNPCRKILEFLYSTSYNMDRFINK

For `CC(C)(O)C[C@@]1(c2ccccc2)CCN([C@H](c2ccc(Br)cc2)C2CC2)C(=O)O1` (racemic) [Example 2, 3-[(4-Bromo-phenyl)-cyclopropyl-methyl]-6-(2-hydroxy-2-methyl-propyl)-6-phenyl-[1,3]oxazinan-2-one], the pIC50 was 6.02. The same measure for `Cn1ccc(-c2ccc([C@H](C3CC3)N3CC[C@@](CC(C)(C)O)(c4ccccc4)OC3=O)cc2)cc1=O` (racemic) [Example 4, 3-{Cyclopropyl-[4-(1-methyl-2-oxo-1,2-dihydro-pyridin-4-yl)-phenyl]-methyl}-6-(2-hydroxy-2-methyl-propyl)-6-phenyl-[1,3]oxazinan-2-one]: < 5.00. In the case of `CC(C)(O)CC1(c2ccccc2)CCN(C(c2ccc(Br)cc2)C2CC2)C(=O)O1` (stereo not drawn) [Example 1, 3-[(4-Bromo-phenyl)-cyclopropyl-methyl]-6-(2-hydroxy-2-methyl-propyl)-6-phenyl-[1,3]oxazinan-2-one] it was 7.19; in that of `Cn1ccc(-c2ccc(C(C3CC3)N3CCC(CC(C)(C)O)(c4ccccc4)OC3=O)cc2)cc1=O` (stereo not drawn) [Example 3, 3-{Cyclopropyl-[4-(1-methyl-2-oxo-1,2-dihydro-pyridin-4-yl)-phenyl]-methyl}-6-(2-hydroxy-2-methyl-propyl)-6-phenyl-[1,3]oxazinan-2-one], 6.95. As for `Cn1ccc(-c2ccc([C@@H](C3CC3)N3CC[C@@](CC(C)(C)O)(c4ccccc4)OC3=O)cc2)cc1=O` [Example 3b, 3-{(R)-cyclopropyl-[4-(1-methyl-2-oxo-1,2-dihydro-pyridin-4-yl)-phenyl]methyl}-(R)-6-(2-hydroxy-2-methyl-propyl)-6-phenyl-[1,3]oxazinan-2-one], the pIC50 is < 5.35. The same measure for `Cn1cc(-c2ccc(C(C3CC3)N3CCC(CC(C)(C)O)(c4ccccc4)OC3=O)cc2)ccc1=O` (stereo not drawn) [Example 5, 3-{Cyclopropyl-[4-(1-methyl-6-oxo-1,6-dihydro-pyridin-3-yl)-phenyl]-methyl}-6-(2-hydroxy-2-methyl-propyl)-6-phenyl-[1,3]oxazinan-2-one]: 7.46; for `CC(C)(O)C[C@]1(c2ccccc2)CCN([C@H](c2ccc(Br)cc2)C2CC2)C(=O)O1` [Example 6, 3-[(S)-(4-Bromo-phenyl)-cyclopropyl-methyl]-(S)-6-(2-hydroxy-2-methyl-propyl)-6-phenyl-[1,3]oxazinan-2-one]: 7.28. In turn, `Cn1ccc(-c2ccc([C@H](C3CC3)N3CC[C@](CC(C)(C)O)(c4ccccc4)OC3=O)cc2)cc1=O` [Example 7, 3-{(S)-Cyclopropyl-[4-(1-methyl-2-oxo-1,2-dihydro-pyridin-4-yl)-phenyl]-methyl}-(S)-6-(2-hydroxy-2-methyl-propyl)-6-phenyl-[1,3]oxazinan-2-one] gave a pIC50 of 7.19. In the case of `Cc1ccc(-c2ccc([C@H](C3CC3)N3CC[C@](CC(C)(C)O)(c4ccccc4)OC3=O)cc2)nn1` [Example 8, 3-{(S)-Cyclopropyl-[4-(6-methyl-pyridazin-3-yl)-phenyl]methyl}-(S)-6-(2-hydroxy-2-methyl-propyl)-6-phenyl-[1,3]oxazinan-2-one] it was 7.54; in that of `CC(C)(O)C[C@]1(c2ccccc2)CCN([C@H](c2ccc(-c3ccn(C4CC4)c(=O)c3)cc2)C2CC2)C(=O)O1` [Example 9, 3-{(S)-Cyclopropyl-[4-(1-cyclopropyl-2-oxo-1,2-dihydro-pyridin-4-yl)-phenyl]-methyl}-(S)-6-(2-hydroxy-2-methyl-propyl)-6-phenyl-[1,3]oxazinan-2-one], 7.42; in that of `Cn1cc(-c2ccc([C@H](C3CC3)N3CC[C@](CC(C)(C)O)(c4ccccc4)OC3=O)cc2)ccc1=O` [Example 10, 3-{(S)-Cyclopropyl-[4-(1-methyl-6-oxo-1,6-dihydro-pyridin-3-yl)-phenyl]-methyl}-(S)-6-(2-hydroxy-2-methyl-propyl)-6-phenyl-[1,3]oxazinan-2-one], 7.15.

`Cc1ncc(-c2ccc([C@H](C3CC3)N3CC[C@](CC(C)(C)O)(c4ccccc4)OC3=O)cc2)cn1` [Example 11, 3-{(S)-Cyclopropyl-[4-(2-methyl-pyrimidin-5-yl)-phenyl]methyl}-(S)-6-(2-hydroxy-2-methyl-propyl)-6-phenyl-[1,3]oxazinan-2-one]: the pIC50 is 7.27.
